Experimental findings from PMC9261963, “Synthesis and Biological Evaluation of 5-Fluoro-2-Oxindole Derivatives as Potential α-Glucosidase Inhibitors” (Frontiers in Chemistry, 2022) are described below.

In series [1] the target is T1, α-glucosidase from Saccharomyces cerevisiae (EC 3.2.1.20) (Saccharomyces cerevisiae, UniProt P53341).
T1 construct: purchased Sigma-Aldrich
Description: biochemical. To be noted: for IC50 / inhibition at 100 µM / Inhibition rate at a concentration of 100 μM (%): p-NPG substrate; for IC50: pH 6.8, 37°C; for inhibition at 100 µM: read-out: Inhibition rate at a concentration of 100 μM (%), 100 μM compound; for Inhibition rate at a concentration of 100 μM (%): 100 μM compound; for Inhibitory activity, folds higher than acarbose: IC50 compared with acarbose.
Description: Then, the inhibitory activity of compounds (3a ∼ 3v) on α-glucosidase from S. cerevisiae was investigated using p-NPG as the substrate. First, the inhibitory activities of compounds (3a ∼ 3v) were screened at a concentration of 100 μM.
The α-glucosidase inhibition of synthetic compounds was performed as previously reported methods with minor modification ([Deng et al., 2022]) which is as follows: briefly, 130 μl of phosphate buffer (10 mM, pH 6.8), 10 μl of α-glucosidase (1 U/ml), and 10 μl of test compound solution were added into the wells of a 96-well plate, followed by incubation for 10 min at 37°C. Then, 50 μl of p-NPG (1 mM) was added, and the plate was further incubated for 30 min at 37°C. Finally, the absorbance of each well was recorded at 405 nm using a microplate reader. […] The inhibition of the test compound on α-glucosidase was calculated as follows: inhibition ratio (%) = [(A− B)/A] × 100, where A is the absorbance of blank and B is the absorbance of the test compound. Each concentration was experimented four times in parallel. Half inhibitory concentration (IC50) was obtained from the fitting curve of inhibition ratio vs. test compound with different concentrations.

In series [2] the target is T1, α-glucosidase from Saccharomyces cerevisiae (EC 3.2.1.20). As to the kind of experiment: Kinetics mechanism analysis (enzyme activity vs enzyme concentration; Lineweaver–Burk plots). The following applies: for Inhibition mechanism (inhibition type): Lineweaver–Burk plot analysis; for Ki: inhibition constant from slope vs inhibitor concentration (free enzyme); for K IS: inhibition constant from vertical intercept vs inhibitor concentration (enzyme–substrate complex); for Reversibility of inhibition: plots of enzyme activity vs enzyme concentration. In kind it is biochemical. As to the method:
In order to obtain the inhibition kinetics type of compounds 3d, 3f, and 3i, the Lineweaver–Burk plot analysis method was carried out with different concentrations of test compounds and substrates.
Compounds 3d, 3f, and 3i with much better α-glucosidase inhibitory activity were selected for kinetic analysis. The experiments were performed to investigate the kinetics mechanism of compounds 3d, 3f, and 3i by the previously reported method ([Xu et al., 2019]). To determine the inhibition mechanism, the final concentrations for 3d were 0, 40, 50, 60 μM, for 3f were 0, 40, 50, 60 μM, and for 3i were 0, 30, 40, 50 μM, the final substrate p-NPG concentration was 0.25 mM, and the final concentrations for α-glucosidase were 3.75 × 10^–2, 5.00 × 10^–2, 6.25 × 10^–2, and 7.50 × 10^–2 U/ml. Then, the inhibition rates were measured by the aforementioned method.
To analyze the inhibition type, the final concentrations for 3d were 0, 40, 50, and 60 μM, for 3f were 0, 40, 50, and 60 μM, and for 3i were 0, 30, 40, and 50 μM, the final α-glucosidase concentration was 5.00 × 10^–2 U/ml, and final concentrations for substrate p-NPG concentration were 0.25, 0.50, 0.75, and 1.00 mM. The inhibition rates were obtained by the aforementioned method. The inhibition type on α-glucosidase was analyzed by using Lineweaver–Burk plots of the inverse of velocities (1/v) vs. the inverse of substrate concentration 1/[S]. The K I and K IS were obtained from the slope and the vertical intercept vs. the inhibitor concentration, respectively.

Read-outs that look alike come from different tables or passages of the source.
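Throughout, for IC50 (μM): Absorbance-based enzyme read-out, with each concentration tested in four parallel replicates.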
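Throughout, for IC50: Absorbance-based enzyme read-out, with each concentration tested in four parallel replicates.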
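Throughout, for Inhibition rate at a concentration of 100 μM (%): Absorbance-based enzyme read-out, with each concentration tested in four parallel replicates.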
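Throughout, for Inhibitory activity, folds higher than acarbose: Absorbance-based enzyme read-out, with each concentration tested in four parallel replicates.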

T1 sequence (P53341 whole entry): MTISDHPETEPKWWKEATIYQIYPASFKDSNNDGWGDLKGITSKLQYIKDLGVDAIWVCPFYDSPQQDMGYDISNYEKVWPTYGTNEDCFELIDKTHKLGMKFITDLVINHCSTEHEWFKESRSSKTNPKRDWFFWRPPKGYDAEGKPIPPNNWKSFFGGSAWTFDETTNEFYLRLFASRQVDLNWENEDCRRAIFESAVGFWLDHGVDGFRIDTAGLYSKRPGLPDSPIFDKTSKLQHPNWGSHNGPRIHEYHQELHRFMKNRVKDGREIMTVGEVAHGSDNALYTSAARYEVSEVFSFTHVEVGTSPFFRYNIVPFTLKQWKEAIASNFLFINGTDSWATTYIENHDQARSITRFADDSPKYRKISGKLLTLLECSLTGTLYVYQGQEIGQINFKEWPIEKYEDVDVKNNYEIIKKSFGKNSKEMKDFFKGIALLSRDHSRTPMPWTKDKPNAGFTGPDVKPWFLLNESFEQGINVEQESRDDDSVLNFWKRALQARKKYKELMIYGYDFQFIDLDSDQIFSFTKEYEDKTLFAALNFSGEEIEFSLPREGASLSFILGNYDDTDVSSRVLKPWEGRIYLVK

In general, melting point refers to the temperature of the solid-liquid transition. A word on the IC50: it is the concentration that inhibits the measured activity by half. With `O=C1Nc2ccc(F)cc2/C1=C/c1cccc(Br)c1` [Compound 3h, (Z)-3-(3-Bromobenzylidene)-5-Fluoroindolin-2-One], the melting point lay within 222.6 to 223.8 °C. Besides, the IC50 in series [1] (IC50 (μM)) is greater than 100 µM. Further, in series [1], the inhibition at 100 µM was determined as 31.61 ± 0.21%.
As for `O=C1Cc2cc(F)ccc2N1` [5-Fluoro-2-oxindole, 5-fluoro-2-oxindole], the IC50 in series [1] (read-out: IC50) was 7510 µM.
As usually defined, the Ki is a measure of affinity in units of concentration, obtained from inhibition or displacement. Read a high Ki as lower affinity. Consider `O=C1Nc2ccc(F)cc2/C1=C/c1ccc(Cl)cc1` [Compound 3f, (Z)-3-(4-Chlorobenzylidene)-5-Fluoroindolin-2-One], for which the melting point lay within 200.6 to 202.5 °C. In series [1], the “Inhibition rate at a concentration of 100 μM (%)” value (“Inhibition rate … (%)” below) turned out to be 90.52 ± 0.27%; the “Inhibitory activity, folds higher than acarbose” value is 10 ∼ 15 folds; the inhibition at 100 µM is roughly 90%. Besides, it took 35.8 ± 0.98 µM to reach half-maximal inhibition in series [1] (IC50 (μM)) (IC50). In series [2], the “Inhibition mechanism (inhibition type)” value is given as “Mixed type”, the Ki worked out at 33.8 µM, the “K IS” value was determined as 58.31 µM and the Reversibility of inhibition entry was “reversible”.
As to `O=C1Nc2ccc(F)cc2/C1=C/c1ccccc1Br` [Compound 3g, (Z)-3-(2-Bromobenzylidene)-5-Fluoroindolin-2-One], the melting point fell in the range of 194.9 to 197.1 °C. Also, in series [1], the “Inhibition rate … (%)” value worked out at 53.71 ± 0.47% and the inhibition at 100 µM was roughly 50%. This compound also returned an IC50 in series [1] (IC50 (μM)) of 95.68 ± 0.28 µM.
`O=C1Nc2ccc(F)cc2/C1=C/c1ccccc1` [Compound 3q, (Z)-3-Benzylidene-5-Fluoroindolin-2-One] had an IC50 in series [1] (IC50 (μM)) greater than 100 µM. For the same compound, the inhibition at 100 µM in series [1] amounted to 10 ± 1.75%.
For `COc1ccccc1/C=C1\C(=O)Nc2ccc(F)cc21` [Compound 3j, (Z)-5-Fluoro-3-(2-Methoxybenzylidene) Indolin-2-One], the melting point was 227.1 to 227.8 °C. For the same compound, the IC50 in series [1] (IC50 (μM)) is greater than 100 µM. Moreover, the inhibition at 100 µM in series [1] amounted to 19.2 ± 1.21%.
For `O=C1Nc2ccc(F)cc2/C1=C/c1cccc(C(F)(F)F)c1` [Compound 3n, (Z)-5-Fluoro-3-[3-(Trifluoromethyl) Benzylidene] Indolin-2-One], the melting point is 199.7 to 200.5 °C. Further, in series [1], the “Inhibition rate … (%)” value was found to be 52.79 ± 1.68% and the inhibition at 100 µM was roughly 50%. Besides, the IC50 in series [1] (IC50 (μM)) was 96.78 ± 0.72 µM.
In the case of `O=C1Nc2ccc(F)cc2/C1=C/c1ccccc1Cl` [Compound 3d, (Z)-3-(2-Chlorobenzylidene)-5-Fluoroindolin-2-One], the melting point was 219.7 to 221.9 °C. In addition, in series [1], the “Inhibition rate … (%)” value is 89.19 ± 0.14%; the “Inhibitory activity, folds higher than acarbose” value is listed as 10 ∼ 15 folds; the inhibition at 100 µM was roughly 90%. This compound also had an IC50 in series [1] (IC50 (μM)) of 49.9 ± 1.16 µM. Moreover, in series [2], the “Inhibition mechanism (inhibition type)” value is recorded as “Mixed type”, the Ki is 15 µM, the “K IS” value is 453.85 µM and the Reversibility of inhibition result was “reversible”.
On to “(Z)-3-(3,4-Difluorobenzylidene)-5-Fluoroindolin-2-One [Compound 3p]”, for which, in series [1], the “Inhibition rate … (%)” value worked out at 55.89 ± 1.71%. The IC50 in series [1] (read-out: IC50) is 92.62 ± 0.45 µM.
On to `O=C1Nc2ccc(F)cc2/C1=C/c1ccccn1` [Compound 3v, (Z)-5-Fluoro-3-(Pyridin-2-ylmethylene) Indolin-2-One], for which the melting point fell in the range of 248.5 to 251.2 °C. The compound also registered an IC50 in series [1] (IC50 (μM)) greater than 100 µM. In addition, in series [1], the inhibition at 100 µM was determined as 3.99 ± 1.28%.
As for `O=C1Nc2ccc(F)cc2/C1=C/c1cccs1` [Compound 3t, (Z)-5-Fluoro-3-(Thiophen-2-ylmethylene) Indolin-2-One], the IC50 in series [1] (IC50 (μM)) was greater than 100 µM. Moreover, the inhibition at 100 µM in series [1] was determined as 5.67 ± 1.11%.
In turn, `O=C1Nc2ccc(F)cc2/C1=C/c1ccco1` [Compound 3s, (Z)-5-Fluoro-3-(Furan-2-ylmethylene) Indolin-2-One] came in with a melting point of 237.9 to 238.8 °C. For the same compound, the IC50 in series [1] (IC50 (μM)) was greater than 100 µM. In addition, in series [1], the inhibition at 100 µM was determined as 4.49 ± 1.88%.
With `O=C1Nc2ccc(F)cc2/C1=C/c1cccc(F)c1` [Compound 3b, (Z)-5-Fluoro-3-(3-Fluorobenzylidene) Indolin-2-One], the melting point lay in the range of 191.4 to 192.2 °C. In addition, in series [1] (IC50 (μM)), the IC50 is greater than 100 µM. Further, in series [1], the inhibition at 100 µM stood at 5.19 ± 0.79%.
`O=C1Nc2ccc(F)cc2/C1=C/c1ccc(F)cc1F` [Compound 3o, (Z)-3-(2,4-Difluorobenzylidene)-5-Fluoroindolin-2-One]: the melting point is 221.1 to 224.3 °C. Further, the IC50 in series [1] (IC50 (μM)) was greater than 100 µM. Further, the inhibition at 100 µM in series [1] came to 18.8 ± 1.15%.
`CSc1ccc(/C=C2\C(=O)Nc3ccc(F)cc32)cc1` [Compound 3r, (Z)-5-Fluoro-3-[4-(Methylthio) Benzylidene] Indolin-2-One] gave a melting point of 246.1 to 247.1 °C. In addition, in series [1], the “Inhibition rate … (%)” value is 60.8 ± 1.27% and the inhibition at 100 µM is roughly 50%. The compound also had an IC50 in series [1] (IC50 (μM)) of 90.6 ± 1.87 µM.
`O=C1Nc2ccc(F)cc2/C1=C/c1ccc(F)cc1` [Compound 3c, (Z)-5-Fluoro-3-(4-Fluorobenzylidene) Indolin-2-One] came in with a melting point of 217 to 219.6 °C. Besides, the IC50 in series [1] (IC50 (μM)) is greater than 100 µM. For the same compound, the inhibition at 100 µM in series [1] is 9.55 ± 0.13%.
For the compound `O=C1Nc2ccc(F)cc2/C1=C/c1ccccc1C(F)(F)F` [Compound 3m, (Z)-5-Fluoro-3-[2-(Trifluoromethyl) Benzylidene) Indolin-2-One], the melting point lay within 235.2 to 236.4 °C. The IC50 in series [1] (read-out: IC50) is greater than 100 µM. In addition, the inhibition at 100 µM in series [1] amounted to 8.43 ± 1.14%.
`O=C1Nc2ccc(F)cc2/C1=C/c1cccc(Cl)c1` [Compound 3e, (Z)-3-(3-Chlorobenzylidene)-5-Fluoroindolin-2-One] displayed a melting point of 237.4 to 238.9 °C. The same compound yielded an IC50 in series [1] (IC50 (μM)) greater than 100 µM. Further, the inhibition at 100 µM in series [1] came to 21.6 ± 0.78%.
The corresponding values for `COc1cccc(/C=C2\C(=O)Nc3ccc(F)cc32)c1` [Compound 3k, (Z)-5-Fluoro-3-(3-Methoxybenzylidene) Indolin-2-One] are 200.1 to 202.1 °C, greater than 100 µM and 27.2 ± 1.47%.
For `O=C1Nc2ccc(F)cc2/C1=C/c1ccccc1F` [Compound 3a, (Z)-5-Fluoro-3-(2-Fluorobenzylidene) Indolin-2-One], the melting point was 228.3 to 230.2 °C. In addition, in series [1] (IC50 (μM)), the IC50 was greater than 100 µM. Moreover, the inhibition at 100 µM in series [1] was found to be 7.29 ± 0.16%.
Turning to `O=C1Nc2ccc(F)cc2/C1=C/c1ccc[nH]1` [Compound 3u, (Z)-3-[(1H-Pyrrol-2-yl)methylene]-5-Fluoroindolin-2-One], in series [1] (IC50 (μM)), the IC50 is greater than 100 µM. Besides, the inhibition at 100 µM in series [1] came to 3.77 ± 1.35%.
Take `COc1ccc(/C=C2\C(=O)Nc3ccc(F)cc32)cc1` [Compound 3l, (Z)-5-Fluoro-3-(4-Methoxybenzylidene) Indolin-2-One]: the melting point is 358.8 to 359.9 °C. In addition, in series [1] (IC50 (μM)), the IC50 was greater than 100 µM. Besides, the inhibition at 100 µM in series [1] was 15.7 ± 0.71%.
Regarding `O=C1Nc2ccc(F)cc2/C1=C/c1ccc(Br)cc1` [Compound 3i, (Z)-3-(4-Bromobenzylidene)-5-Fluoroindolin-2-One], the melting point was in the range of 249.3 to 251.6 °C. For the same compound, in series [1], the “Inhibition rate … (%)” value is on record as 92.86 ± 0.32%; the “Inhibitory activity, folds higher than acarbose” value is given as 10 ∼ 15 folds; the inhibition at 100 µM was roughly 90%. The same compound registered an IC50 in series [1] (IC50 (μM)) of 56.87 ± 0.42 µM. In addition, in series [2], the “Inhibition mechanism (inhibition type)” value is listed as “Mixed type”, affinity was put at a Ki of 22.7 µM, the “K IS” value worked out at 24.74 µM and the Reversibility of inhibition result is on record as “reversible”.
